The compounds below were run against T1, human PPARγ1 (Homo sapiens, UniProt P37231) (assay: Measurement of human PPARγ1 binding activity ([3H]-compound A displacement)). Conditions: cell extract with 1.5 μg/ml full length hPPARγ1, 20 nM [3H]-compound A, 4° C., 16 hrs.
T1 construct: made in house; host or cells: COS-1 cells transiently transfected with pMCMVneo-hPPARγ; crude supernatant of the lysate, not purified
T1 sequence (P37231 1-477 isoform P37231-2): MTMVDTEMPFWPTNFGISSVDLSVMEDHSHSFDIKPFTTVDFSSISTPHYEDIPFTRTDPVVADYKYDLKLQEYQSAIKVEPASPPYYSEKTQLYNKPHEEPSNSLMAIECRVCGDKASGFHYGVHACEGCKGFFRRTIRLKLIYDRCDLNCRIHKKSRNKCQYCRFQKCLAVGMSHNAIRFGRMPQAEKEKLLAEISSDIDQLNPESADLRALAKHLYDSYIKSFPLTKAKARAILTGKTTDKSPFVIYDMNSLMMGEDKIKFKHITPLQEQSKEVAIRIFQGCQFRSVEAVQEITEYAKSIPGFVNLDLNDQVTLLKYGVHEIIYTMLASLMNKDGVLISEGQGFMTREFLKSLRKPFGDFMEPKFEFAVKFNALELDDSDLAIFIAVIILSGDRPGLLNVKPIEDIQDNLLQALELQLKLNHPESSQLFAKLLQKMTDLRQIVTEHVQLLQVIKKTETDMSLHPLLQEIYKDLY
Protocol: A cell extract containing 1.5 μg/ml of full length hPPARγ1 prepared in Reference Example 7a, 20 nM [^3H]-compound A (16 Ci/mmol)(Amersham Pharmacia Biotech) and a test compound were reacted in TEGM buffer at 4° C. for 16 hrs. To the reaction mixture was added activated carbon (Sigma) coated with 140 μl of dextran (Amersham Pharmacia Biotech) and gelatin (Sigma), and the mixture was left standing at 4° C. for 10 min and centrifuged at 910×g for 10 min. After centrifugation, the radioactivity of 30 μl of supernatant was measured with Topcount (Packard). In addition, a test similar to the above was conducted for the non-use of the aforementioned test compound and for the use of 100 μM of compound A instead of the aforementioned test compound, and the radioactivity was determined.
The human PPARγ1 binding activity of the test compound was evaluated using percentages wherein the measured value of the radioactivity when 20 nM [^3H]-compound A alone was added was 100%, and the measured value of the radioactivity when 20 nM [^3H]-compound A and 100 μM of compound A were simultaneously added was 0%. Moreover, the IC50 value of the test compound was calculated based on the analysis of the compound concentration and the percentage using PRISM3.0 (Graph Pad, Inc.).
COS-1 cells were seeded in a 150 cm^2 tissue culture flask (Corning Inc.) at 5×10^6 cells, and cultured under 37° C. 5% CO2 conditions for 24 hrs. Transfection was performed using lipofectamine (GIBCO BRL). To be specific, 125 μl of lipofectamine, 100 μl of PLUS Reagent and 15 μg of hPPARγ expression plasmid (plasmid pMCMVneo-hPPARγ obtained in Reference Example 6a) were mixed with opti-MEM (GIBCO BRL) to give a transfection mixture. The transfection mixture (25 ml) was added to COS-1 cells and the cells were cultured under 37° C. 5% CO2 conditions for 3 hrs. Then 25 ml of DMEM medium (Nikken Biomedical Laboratory) containing 10% FCS treated with activated carbon (Sigma) was added to the cells and the cells were cultured under 37° C. 5% CO2 conditions. After 24 hrs., the medium was substituted with 50 ml of DMEM medium (Nikken Biomedical Laboratory) containing 5% FCS treated with activated carbon, and the cells were cultured under 37° C., 5% CO2 conditions. After 48 hrs, the transfected cells were recovered and washed with TEG buffer (10 mM Tris-HCl (pH 7.2), 50 mM EDTA, 10% glycerol). The cells were suspended in 1 ml TEGM buffer (10 mM Tris-HCl (pH 7.2), 1 mM EDTA, 10% glycerol, 7 μl/100 ml β-mercaptoethanol, 10 mM Na molybdate, 1 mM dithiothreitol, 2 tablets/100 ml Protease inhibitor Cocktail tablets (Boehringer Mannheim)) and, for cell lysis, frozen with liquid nitrogen and thawed on ice. To remove the debris of the cells, the extract was centrifuged at 228,000×g, 4° C. for 20 min. and the supernatant was preserved at −80° C. until use.

SMILES	IC50 [µM]
COc1cc(COc2nn(-c3ccccc3)cc2C=O)ccc1OCc1nc(-c2ccco2)oc1C [Example 76, 3-[(4-{[2-(2-furyl)-5-methyl-1,3-oxazol-4-yl]methoxy}-3-methoxybenzyl)oxy]-1-phenyl-1H-pyrazole-4-carbaldehyde]	0.19
CCOP(=O)(CCc1cn(-c2ccccc2)nc1OCc1ccc(OCc2nc(-c3ccco3)oc2C)c(OC)c1)OCC [Example 100, diethyl 2-{3-[(4-{[2-(2-furyl)-5-methyl-1,3-oxazol-4-yl]methoxy}-3-methoxybenzyl)oxy]-1-phenyl-1H-pyrazol-4-yl}ethylphosphonate]	0.21
CCOP(=O)(/C=C/c1cn(-c2ccccc2)nc1OCc1ccc(OCc2nc(-c3ccco3)oc2C)c(OC)c1)OCC [Example 116 (E form), diethyl (E)-2-{3-[(4-{[2-(2-furyl)-5-methyl-1,3-oxazol-4-yl]methoxy}-3-methoxybenzyl)oxy]-1-phenyl-1H-pyrazol-4-yl}ethenylphosphonate]	0.039
CCOP(=O)(/C=C/c1cn(-c2ccccc2)nc1OCc1ccc(OCc2nc(-c3ccccc3)oc2C)c(OC)c1)OCC [Example 146, diethyl (E)-2-[3-({3-methoxy-4-[(5-methyl-2-phenyl-1,3-oxazol-4-yl)methoxy]benzyl}oxy)-1-phenyl-1H-pyrazol-4-yl]ethenylphosphonate]	0.068
CCOP(=O)(/C=C/c1cn(-c2ccccc2)nc1OCc1ccc(OCc2csc(N3CCOCC3)n2)c(OC)c1)OCC [Example 191, diethyl (E)-2-{3-[(3-methoxy-4-{[2-(morpholin-4-yl)-1,3-thiazol-4-yl]methoxy}benzyl)oxy]-1-phenyl-1H-pyrazol-4-yl}ethenylphosphonate]	0.81
CCOP(=O)(/C=C/c1cn(-c2ccccc2)nc1OCc1ccc(OCc2nc(-c3cccc(C(=O)O)c3)oc2C)c(OC)c1)OCC [Example 203, 3-[4-({4-[({4-[(E)-2-(diethoxyphosphoryl)ethenyl]-1-phenyl-1H-pyrazol-3-yl}oxy)methyl]-2-methoxyphenoxy}methyl)-5-methyl-1,3-oxazol-2-yl]benzoic acid]	0.0048
CCOP(=O)(/C=C/c1cn(-c2ccccc2)nc1OCc1ccc(OCc2nc(-c3cccc(C(=O)OC)c3)oc2C)c(OC)c1)OCC [Example 211, methyl 3-[4-({4-[({4-[(E)-2-(diethoxyphosphoryl)ethenyl]-1-phenyl-1H-pyrazol-3-yl}oxy)methyl]-2-methoxyphenoxy}methyl)-5-methyl-1,3-oxazol-2-yl]benzoate]	0.027
CCOP(=O)(/C=C/c1cn(-c2ccccc2)nc1OCc1ccc(OCc2nc(-c3cccc(C(N)=O)c3)oc2C)c(OC)c1)OCC [Example 239, diethyl (E)-2-(3-{[4-({2-[3-(carbamoyl)phenyl]-5-methyl-1,3-oxazol-4-yl}methoxy)-3-methoxybenzyl]oxy}-1-phenyl-1H-pyrazol-4-yl)ethenylphosphonate]	0.061
CCOP(=O)(/C=C/c1cn(-c2ccccc2)nc1OCc1ccc(OCc2nc(-c3ccc(CC(=O)O)cc3)oc2C)c(OC)c1)OCC [Example 241, {4-[4-({4-[({4-[(E)-2-(diethoxyphosphoryl)ethenyl]-1-phenyl-1H-pyrazol-3-yl}oxy)methyl]-2-methoxyphenoxy}methyl)-5-methyl-1,3-oxazol-2-yl]phenyl}acetic acid]	0.069
CCOP(=O)(/C=C/c1cn(-c2ccccc2)nc1OCc1ccc(OCc2nc(-c3cccc(CC(=O)O)c3)oc2C)c(OC)c1)OCC [Example 249, {3-[4-({4-[({4-[(E)-2-(diethoxyphosphoryl)ethenyl]-1-phenyl-1H-pyrazol-3-yl}oxy)methyl]-2-methoxyphenoxy}methyl)-5-methyl-1,3-oxazol-2-yl]phenyl}acetic acid]	0.033
CCOP(=O)(/C=C/c1cn(-c2ccccc2)nc1OCc1ccc(OCc2nc(-c3ccc(OC)c(C(=O)O)c3)oc2C)c(OC)c1)OCC [Example 252, 5-{4-({4-[({4-[(E)-2-(diethoxyphosphoryl)ethenyl]-1-phenyl-1H-pyrazol-3-yl}oxy)methyl]-2-methoxyphenoxy}methyl)-5-methyl-1,3-oxazol-2-yl}-2-methoxybenzoic acid]	0.023

Other lines, results leading:

IC50 [µM]	SMILES
1.1	Cc1oc(-c2ccco2)nc1COc1ccc(COc2nn(Cc3ccccc3)cc2C=O)cn1 [Example 42, 1-benzyl-3-[(6-{[2-(2-furyl)-5-methyl-1,3-oxazol-4-yl]methoxy}-3-pyridinyl)methoxy]-1H-pyrazole-4-carbaldehyde]
0.77	CCOC(=O)c1cn(-c2ccccc2)nc1OCc1ccc(OCc2nc(-c3ccco3)oc2C)c(OC)c1 [Example 72, ethyl 3-[(4-{[2-(2-furyl)-5-methyl-1,3-oxazol-4-yl]methoxy}-3-methoxybenzyl)oxy]-1-phenyl-1H-pyrazole-4-carboxylate]
0.66	COc1cc(COc2nn(-c3ccccc3)cc2CO)ccc1OCc1nc(-c2ccco2)oc1C [Example 75, {3-[(4-{[2-(2-furyl)-5-methyl-1,3-oxazol-4-yl]methoxy}-3-methoxybenzyl)oxy]-1-phenyl-1H-pyrazol-4-yl}methanol]
0.079	COc1cc(COc2nn(-c3ccccc3)cc2C#N)ccc1OCc1nc(-c2ccco2)oc1C [Example 77, 3-[(4-{[2-(2-furyl)-5-methyl-1,3-oxazol-4-yl]methoxy)-3-methoxybenzyl)oxy]-1-phenyl-1H-pyrazole-4-carbonitrile]
0.08	COc1cc(COc2nn(-c3ccccc3)cc2/C=C/P(=O)(OC(C)C)OC(C)C)ccc1OCc1nc(-c2ccco2)oc1C [Example 145, diisopropyl (E)-2-{3-[(4-{[2-(2-furyl)-5-methyl-1,3-oxazol-4-yl]methoxy}-3-methoxybenzyl)oxy]-1-phenyl-1H-pyrazol-4-yl}ethenylphosphonate]
0.05	COc1cc(COc2nn(-c3ccccc3)cc2/C=C/c2csc(C)n2)ccc1OCc1nc(-c2ccco2)oc1C [Example 150 (E form), 2-(2-furyl)-4-({2-methoxy-4-[({4-[(E)-2-(2-methyl-1,3-thiazol-4-yl)ethenyl]-1-phenyl-1H-pyrazol-3-yl}oxy)methyl]phenoxy}methyl)-5-methyl-1,3-oxazole]
7.3	CCC(=O)/C=C/c1cn(-c2ccccc2)nc1OCc1ccc(OCc2nc(-c3ccco3)oc2C)c(OC)c1 [Example 156, (1E)-1-{3-[(4-{[2-(2-furyl)-5-methyl-1,3-oxazol-4-yl]methoxy}-3-methoxybenzyl)oxy]-1-phenyl-1H-pyrazol-4-yl}-1-penten-3-one]
0.0036	CCc1nc(/C=C/c2cn(-c3ccccc3)nc2OCc2ccc(OCc3nc(-c4cccc(C(=O)O)c4)oc3C)c(OC)c2)cs1 [Example 224, 3-[4-({4-[({4-[(E)-2-(2-ethyl-1,3-thiazol-4-yl)ethenyl]-1-phenyl-1H-pyrazol-3-yl}oxy)methyl]-2-methoxyphenoxy}methyl)-5-methyl-1,3-oxazol-2-yl]benzoic acid]
0.12	COc1cc(COc2nn(-c3ccccc3)cc2/C=C/C#N)ccc1OCc1nc(-c2ccccc2)oc1C [Example 282, (E)-3-(3-{[3-methoxy-4-(5-methyl-2-phenyl-1,3-oxazol-4-ylmethoxy)benzyl]oxy}-1-phenyl-1H-pyrazol-4-yl)-2-propenonitrile]
0.075	CCOC(=O)/C=C/c1cn(-c2ccccc2)nc1OCc1ccc(OCc2nc(-c3ccccc3)oc2C)c(OC)c1 [Example 284, ethyl (E)-3-(3-{[3-methoxy-4-(5-methyl-2-phenyl-1,3-oxazol-4-ylmethoxy)benzyl]oxy}-1-phenyl-1H-pyrazol-4-yl)-2-propenoate]

— patent publication US7368578B2, “Five-membered heterocyclic compounds” (Takeda Pharmaceutical Company Limited, priority 2002, dated 2008)
